# From patent publication US7112601B2, “Cycloalkyl heterocycles for treating hepatitis C virus” (priority 2003, dated 2006)
# Test system: HCV
# Experiment: not given
# Conditions: combination therapy, HCV patients (Poynard et al. Lancet 1998); cited from earlier work
row,Compound,sustained efficacy
1,alpha-interferon and ribavirin,40 % of patients

# Target: T1, HCV NS5B RdRp (Hepatitis C virus genotype 1b, UniProt Q9WMX2)
# T1 construct: The protein was expressed with an 18 amino acid C-terminal truncation to enhance the solubility; made in house; host or cells: E. coli BL21(DE3)
# T1 sequence (Q9WMX2 2420-2992): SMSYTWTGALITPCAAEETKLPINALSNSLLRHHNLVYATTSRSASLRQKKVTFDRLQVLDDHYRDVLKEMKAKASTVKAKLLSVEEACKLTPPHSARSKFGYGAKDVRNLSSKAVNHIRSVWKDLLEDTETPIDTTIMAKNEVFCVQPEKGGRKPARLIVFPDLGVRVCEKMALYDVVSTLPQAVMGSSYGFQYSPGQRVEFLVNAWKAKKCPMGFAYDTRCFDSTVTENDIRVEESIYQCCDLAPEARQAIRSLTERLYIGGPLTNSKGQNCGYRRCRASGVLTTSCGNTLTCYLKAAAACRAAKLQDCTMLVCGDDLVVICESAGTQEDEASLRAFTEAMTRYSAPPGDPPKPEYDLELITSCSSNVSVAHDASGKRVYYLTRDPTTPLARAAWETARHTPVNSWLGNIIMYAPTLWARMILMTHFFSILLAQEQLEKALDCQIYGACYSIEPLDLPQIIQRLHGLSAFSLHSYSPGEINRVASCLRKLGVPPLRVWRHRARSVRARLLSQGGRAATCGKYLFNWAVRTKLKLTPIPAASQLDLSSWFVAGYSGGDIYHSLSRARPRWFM
# Experiment: HCV NS5B RdRp enzyme inhibition assay
# Assay type: biochemical
# Conditions: not given
# Method: HCV NS5B RdRp cloning, expression, and purification. The cDNA encoding the NS5B protein of HCV, genotype 1b, was cloned into the pET21a expression vector. The protein was expressed with an 18 amino acid C-terminal truncation to enhance the solubility. The E. coli competent cell line BL21(DE3) was used for expression of the protein. Cultures were grown at 37° C. for ˜4 hours until the cultures reached an optical density of 2.0 at 600 nm. The cultures were cooled to 20° C. and induced with 1 mM IPTG. Fresh ampicillin was added to a final concentration of 50 ug/ml and the cells were grown overnight at 20° C.
# Cell pellets (3L) were lysed for purification to yield 15–24 mgs of purified NS5B. The lysis buffer consisted of 20 mM Tris-HCl, pH 7.4, 500 mM NaCl, 0.5% triton X-100, 1 mM DTT, 1 mM EDTA, 20% glycerol, 0.5 mg/ml lysozyme, 10 mM MgCl2, 15 ug/ml deoxyribonuclease I, and Complete TM protease inhibitor tablets (Roche). After addition of the lysis buffer, frozen cell pellets were resuspended using a tissue homogenizer. To reduce the viscosity of the sample, aliquots of the lysate were sonicated on ice using a microtip attached to a Branson sonicator. The sonicated lysate was centrifuged at 100,000×g for 1 hr at 4° C. and filtered through a 0.2 μm filter unit (Corning).
# The protein was purified using three sequential chromatography steps: Heparin sepharose CL-6B, polyU sepharose 4B, and Hitrap SP sepharose (Pharmacia). The chromatography buffers were identical to the lysis buffer but contained no lysozyme, deoxyribonuclease I, MgCl2 or protease inhibitor and the NaCl concentration of the buffer was adjusted according to the requirements for charging the protein onto the column. Each column was eluted with a NaCl gradient which varied in length from 5–50 column volumes depending on the column type. After the final chromatography step, the resulting purity of the enzyme is >90% based on SDS-PAGE analysis. The enzyme was aliquoted and stored at −80° C.
# HCV NS5B RdRp enzyme assay. HCV RdRp genotype 1b assays were run in assay buffer composed of 20 mM Tris-HCl, pH 7.5, 2.5 mM KCl, 5 mM MgCl2, 1 mM DTT, 1.6 U RNAse inhibitor (Promega N2515), in 96 well plates (Falcon 3918). All compounds were serially diluted in DMSO and diluted further in assay buffer such that the final concentration of DMSO in the assay was 2%. Compounds were serially diluted (3-fold each time) for a 7 point inhibition analysis. HCV RdRp genotype 1b enzyme was used at a final concentration of 28 nM. A polyA template was used at 28 nM, and the oligo-dT12-18 primer was used at 840 nM final concentration. Preannealed primer and template were obtained commercially (Amersham 27-787802). ^3H-UTP was used at 0.125 μCi (1 μM total UTP). Reaction was initiated by the addition of enzyme. Reactions were incubated at 30° C. for 45 min, and stopped by adding 30 ul of 20% ice cold TCA. Plates were chilled for 30 minutes and harvested onto Unifilter-96, GF/B plates (Packard, 6005177) using a Packard FilterMate Cell Harvester. The harvest plates were prewashed 3 times, 200 ul/well, with 100 mM NaPPi. Harvested filters were washed 30 times, 200 ul/well, with distilled water followed by ethanol. Filter plates were dried, and 30 ul/well microscint-20 was added. Plates were read on a Packard Top Count NXT.
# The IC50 values for compounds were determined using […] different [I], combined with 7 nM enzyme, 800 ng of the template-primer polyC/oligoG12 (1:5 molar ratio), and 0.7 uM of ^3H GTP containing 1 uCi. The observed fractional activity (fa=vi/vo) was used in the equation IC50=[I]/(1/fa-1) to determine a single point IC50 value. Typically, the single point IC50 values derived from [I] that produced fractional activities in the range of 0.1 to 0.8 relative to the uninhibited control were averaged to calculate the IC50 value for each compound.
row,Compound,IC50
1,"CCOC(=O)C#Cc1cc(-c2ccc(OCc3cc(OC)ccc3-c3ccc(Cl)cc3)cc2)n(C2CCCCC2)n1 [Example 20, Ethyl 3-(5-{4-[(4′-chloro-4-methoxy-1,1′-biphenyl-2-yl)methoxy]phenyl}-1-cyclohexyl-1H-pyrazol-3-yl)-2-propynoate]",> 25 µM
2,"CCOC(=O)/C(C)=C/c1cc(C2CCCCC2)n(-c2ccc(OCc3ccccc3)cc2)n1 [Example 34, Ethyl (2E)-3-{1-[4-(benzyloxy)phenyl]-5-cyclohexyl-1H-pyrazol-3-yl}-2-methyl-2-propenoate]",> 25 µM
3,"C/C(=C\c1cc(-c2ccc(OCc3ccccc3)cc2)n(C2CCCCC2)n1)C(=O)O [Example 7, (2E)-3-{5-[4-(benzyloxy)phenyl]-1-cyclohexyl-1H-pyrazol-3-yl}-2-methyl-2-propenoic acid]",10 µM
4,"CC(C)(C)OC(=O)/C=C/c1cn(C2CCCCC2)c(-c2ccc(OCc3ccccc3)cc2)n1 [Example 44, tert-butyl (2E)-3-{2-[4-(benzyloxy)phenyl]-1-cyclohexyl-1H-imidazol-4-yl}-2-propenoate]",> 25 µM
5,"CCOC(=O)c1cc(-c2ccc(OCc3ccccc3)cc2)n(C2CCCCC2)n1 [Example 1, Ethyl 1-cyclohexyl-5-(4-benzyloxyphenyl)-1H-pyrazole-3-carboxylate]",> 25 µM
6,"CCOC(=O)/C(C)=C/c1cn(C2CCCCC2)c(-c2ccc(OCc3cc(OC)ccc3-c3ccc(Cl)cc3)cc2)n1 [Example 51, Ethyl (2E)-3-(2-{4-[(4′-chloro-4-methoxy-1,1′-biphenyl-2-yl)methoxy]phenyl}-1-cyclohexyl-1H-imidazol-4-yl)-2-methyl-2-propenoate]",> 25 µM
7,"CNC(=O)c1ccc(-c2ccc(Cl)cc2)c(COc2ccc(-c3nc(/C=C(\C)C(=O)OC(C)(C)C)cn3C3CCCCC3)cc2)c1 [Example 53, Butoxy^t (2E)-3-(2-{4-[(4′-chloro-4-N-methylcarbamoyl-1,1′-biphenyl-2-yl)methoxy]phenyl}-1-cyclohexyl-1H-imidazol-4-yl)-2-methyl-2-propenoate]",> 25 µM
8,"CCOC(=O)/C(C)=C/c1cc(-c2ccc(OCc3cc(C(=O)OC(C)(C)C)ccc3-c3ccc(Cl)cc3)cc2)n(C2CCCCC2)n1 [Example 11, Ethyl (2E)-3-(5-{4-[(4′-chloro-4-t-butoxycarbonyl-1,1′-biphenyl-2-yl)methoxy]phenyl}-1-cyclohexyl-1H-pyrazol-3-yl)-2-methyl-2-propenoate]",> 25 µM
9,"COc1ccc(-c2ccc(Cl)cc2)c(COc2ccc(-n3nc(/C=C/C(=O)O)cc3C3CCCCC3)cc2)c1 [Example 33, (2E)-3-(1-{4-[(4′-chloro-4-methoxy-1,1′-biphenyl-2-yl)methoxy]phenyl}-5-cyclohexyl-1H-pyrazol-3-yl)-2-propenoic acid]",2.4 µM
10,"O=C(O)C#Cc1cc(-c2ccc(OCc3ccccc3)cc2)n(C2CCCCC2)n1 [Example 19, 3-{5-[4-(benzyloxy)phenyl]-1-cyclohexyl-1H-pyrazol-3-yl}-2-propynoic acid]",4.9 µM
11,COC(=O)/C=C/c1nn(C2CCCCC2)c(-c2ccc(OCc3cc(OC)ccc3-c3ccc(Cl)cc3)cc2)c1-c1ccccc1 [Example 27],> 25 µM
12,"CCOC(=O)/C(C)=C/c1cn(C2CCCCC2)c(-c2ccc(OCc3ccccc3)cc2)n1 [Example 49, Ethyl (2E)-3-{2-[4-(benzyloxy)phenyl]-1-cyclohexyl-1H-imidazol-4-yl}-2-methyl-2-propenoate]",> 25 µM
13,"O=C(O)/C=C/c1cc(C2CCCCC2)n(-c2ccc(OCc3ccccc3)cc2)n1 [Example 31, (2E)-3-{1-[4-(benzyloxy)phenyl]-5-cyclohexyl-1H-pyrazol-3-yl}-2-propenoic acid]",4.5 µM
14,"COC(=O)CCc1cc(-c2ccc(OCc3cc(OC)ccc3-c3ccc(Cl)cc3)cc2)n(C2CCCCC2)n1 [Example 16, Methyl 3-(5-{4-[(4′-chloro-4-methoxy-1,1′-biphenyl-2-yl)methoxy]phenyl}-1-cyclohexyl-1H-pyrazol-3-yl)propanoate]",> 25 µM
15,"O=C(O)/C=C/c1cn(C2CCCCC2)c(-c2ccc(OCc3ccccc3)cc2)n1 [Example 45, (2E)-3-{2-[4-(benzyloxy)phenyl]-1-cyclohexyl-1H-imidazol-4-yl}-2-propenoic acid]",6.6 µM
16,"COC(=O)/C=C/c1cc(C2CCCCC2)n(-c2ccc(OCc3ccccc3)cc2)n1 [Example 30, Methyl (2E)-3-{1-[4-(benzyloxy)phenyl]-5-cyclohexyl-1H-pyrazol-3-yl}-2-propenoate]",> 25 µM
17,"CCOC(=O)/C(C)=C/c1cc(-c2ccc(OCc3ccccc3)cc2)n(C2CCCCC2)n1 [Example 6, Ethyl (2E)-3-{5-[4-(benzyloxy)phenyl]-1-cyclohexyl-1H-pyrazol-3-yl}-2-methyl-2-propenoate]",> 25 µM
18,"CCOC(=O)/C(C)=C/c1cc(-c2ccc(OCc3cc(OC)ccc3-c3ccc(Cl)cc3)cc2)n(C2CCCCC2)n1 [Example 8, Ethyl (2E)-3-(5-{4-[(4′-chloro-4-methoxy-1,1′-biphenyl-2-yl)methoxy]phenyl}-1-cyclohexyl-1H-pyrazol-3-yl)-2-methyl-2-propenoate]",> 25 µM
19,CCOC(=O)/C(C)=C/c1cc(C2CCCCC2)n(-c2ccc(OCc3cc(C(=O)NC)ccc3-c3ccc(Cl)cc3)cc2)n1 [Example 38],> 25 µM
20,O=C(O)CCc1cc(C2CCCCC2)n(-c2ccc(OCc3ccccc3)cc2)n1 [Example 41],10 µM
21,"COC(=O)CCc1cc(C2CCCCC2)n(-c2ccc(OCc3cc(OC)ccc3-c3ccc(Cl)cc3)cc2)n1 [Example 42, Methyl 3-(1-{4-[(4′-chloro-4-methoxy-1,1′-biphenyl-2-yl)methoxy]phenyl}-5-cyclohexyl-1H-pyrazol-3-yl)propanoate]",> 25 µM
22,"COc1ccc(-c2ccc(Cl)cc2)c(COc2ccc(-c3cc(CCC(=O)O)nn3C3CCCCC3)cc2)c1 [Example 17, 3-(5-{4-[(4′-chloro-4-methoxy-1,1′-biphenyl-2-yl)methoxy]phenyl}-1-cyclohexyl-1H-pyrazol-3-yl)propanoic acid]",1.8 µM
23,"COC(=O)/C=C/c1cn(C2CCCCC2)c(-c2ccc(OCc3cc(OC)ccc3-c3ccc(Cl)cc3)cc2)n1 [Example 47, Methyl (2E)-3-(2-{4-[(4′-chloro-4-methoxy-1,1′-biphenyl-2-yl)methoxy]phenyl}-1-cyclohexyl-1H-imidazol-4-yl)-2-propenoate]",> 25 µM
24,"COC(=O)CCc1cc(-c2ccc(OCc3ccccc3)cc2)n(C2CCCCC2)n1 [Example 14, Methyl 3-{5-[4-(benzyloxy)phenyl]-1-cyclohexyl-1H-pyrazol-3-yl}propanoate]",> 25 µM
25,"C/C(=C\c1cn(C2CCCCC2)c(-c2ccc(OCc3ccccc3)cc2)n1)C(=O)O [Example 50, (2E)-3-{2-[4-(benzyloxy)phenyl]-1-cyclohexyl-1H-imidazol-4-yl}-2-methyl-2-propenoic acid]",15 µM
